Results as given in US9428508B2, “2,4-diamino-6,7-dihydro-5H-pyrrolo[2,3]pyrimidine derivatives as FAK/Pyk2 inhibitors” (Centaurus BioPharma Co., Ltd., priority 2011, dated 2016).
pIC50: −log10 of the molar value.

Legend:
FAK = FAK (Homo sapiens (Human), UniProt Q05397); assay: Biochemical assay for FAK activity (LANCE TR-FRET, ULight-poly Glu,Ala,Tyr substrate); conditions: GST-tagged FAK, 120 min reaction
Method in brief: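 GST-tagged FAK (2.5 nM working stock) with ULight-poly Glu,Ala,Tyr (666 nM stock) and ATP (33.3 μM stock) in Tris pH 7.5/MgCl2/DTT/CHAPS buffer with BSA, 120 min; EDTA-quenched. Phosphorylation read by TR-FRET with Eu-anti-phosphotyrosine (PY20) antibody after 60 min. Compounds tested as 12-point 3-fold dilutions.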

PYK2 = PYK2 (Homo sapiens (Human), UniProt Q14289); assay: Biochemical assay for PYK2 activity (LANCE TR-FRET, ULight-poly Glu,Ala,Tyr substrate); conditions: GST-tagged PYK2, 40 min reaction
Method in brief: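 GST-tagged human PYK2 (2 nM working stock) with ULight-poly Glu,Ala,Tyr (1:1:1) peptide (666 nM working stock) and ATP (46.6 μM working stock) in 40 mM Tris pH 7.5, MgCl2, 1 mM DTT, 1 mM CHAPS; 40 min reaction, EDTA quench. Phosphotyrosine read by LANCE Eu-anti-phosphotyrosine (PY20) TR-FRET after 60 min; 12-point 3-fold compound dilutions.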

Chain of PYK2 (Q14289 whole entry): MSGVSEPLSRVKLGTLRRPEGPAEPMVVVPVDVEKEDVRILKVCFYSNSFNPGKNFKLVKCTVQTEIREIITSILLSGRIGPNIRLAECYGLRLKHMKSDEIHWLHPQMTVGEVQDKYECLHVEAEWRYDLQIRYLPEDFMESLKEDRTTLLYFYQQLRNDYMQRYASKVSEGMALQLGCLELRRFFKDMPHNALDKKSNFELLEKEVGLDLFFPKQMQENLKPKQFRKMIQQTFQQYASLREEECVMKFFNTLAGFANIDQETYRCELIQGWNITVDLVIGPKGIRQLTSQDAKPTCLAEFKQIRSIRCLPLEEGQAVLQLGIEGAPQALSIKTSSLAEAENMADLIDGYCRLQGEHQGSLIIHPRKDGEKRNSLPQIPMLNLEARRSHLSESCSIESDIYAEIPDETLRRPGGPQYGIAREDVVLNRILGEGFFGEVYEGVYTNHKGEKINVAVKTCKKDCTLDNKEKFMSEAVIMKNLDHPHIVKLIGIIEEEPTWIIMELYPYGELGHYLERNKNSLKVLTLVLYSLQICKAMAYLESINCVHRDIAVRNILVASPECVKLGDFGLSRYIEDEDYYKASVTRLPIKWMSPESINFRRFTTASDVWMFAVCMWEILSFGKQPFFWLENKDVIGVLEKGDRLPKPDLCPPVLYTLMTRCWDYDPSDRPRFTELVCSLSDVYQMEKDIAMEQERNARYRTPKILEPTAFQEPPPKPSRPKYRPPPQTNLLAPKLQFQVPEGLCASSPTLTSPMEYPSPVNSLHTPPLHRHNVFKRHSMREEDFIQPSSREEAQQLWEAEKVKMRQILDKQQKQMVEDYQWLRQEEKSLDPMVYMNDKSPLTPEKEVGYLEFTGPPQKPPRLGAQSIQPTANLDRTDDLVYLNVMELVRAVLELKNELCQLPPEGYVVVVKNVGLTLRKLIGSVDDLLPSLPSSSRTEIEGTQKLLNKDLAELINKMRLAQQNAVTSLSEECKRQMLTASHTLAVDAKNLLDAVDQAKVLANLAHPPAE
Chain of FAK (Q05397 whole entry): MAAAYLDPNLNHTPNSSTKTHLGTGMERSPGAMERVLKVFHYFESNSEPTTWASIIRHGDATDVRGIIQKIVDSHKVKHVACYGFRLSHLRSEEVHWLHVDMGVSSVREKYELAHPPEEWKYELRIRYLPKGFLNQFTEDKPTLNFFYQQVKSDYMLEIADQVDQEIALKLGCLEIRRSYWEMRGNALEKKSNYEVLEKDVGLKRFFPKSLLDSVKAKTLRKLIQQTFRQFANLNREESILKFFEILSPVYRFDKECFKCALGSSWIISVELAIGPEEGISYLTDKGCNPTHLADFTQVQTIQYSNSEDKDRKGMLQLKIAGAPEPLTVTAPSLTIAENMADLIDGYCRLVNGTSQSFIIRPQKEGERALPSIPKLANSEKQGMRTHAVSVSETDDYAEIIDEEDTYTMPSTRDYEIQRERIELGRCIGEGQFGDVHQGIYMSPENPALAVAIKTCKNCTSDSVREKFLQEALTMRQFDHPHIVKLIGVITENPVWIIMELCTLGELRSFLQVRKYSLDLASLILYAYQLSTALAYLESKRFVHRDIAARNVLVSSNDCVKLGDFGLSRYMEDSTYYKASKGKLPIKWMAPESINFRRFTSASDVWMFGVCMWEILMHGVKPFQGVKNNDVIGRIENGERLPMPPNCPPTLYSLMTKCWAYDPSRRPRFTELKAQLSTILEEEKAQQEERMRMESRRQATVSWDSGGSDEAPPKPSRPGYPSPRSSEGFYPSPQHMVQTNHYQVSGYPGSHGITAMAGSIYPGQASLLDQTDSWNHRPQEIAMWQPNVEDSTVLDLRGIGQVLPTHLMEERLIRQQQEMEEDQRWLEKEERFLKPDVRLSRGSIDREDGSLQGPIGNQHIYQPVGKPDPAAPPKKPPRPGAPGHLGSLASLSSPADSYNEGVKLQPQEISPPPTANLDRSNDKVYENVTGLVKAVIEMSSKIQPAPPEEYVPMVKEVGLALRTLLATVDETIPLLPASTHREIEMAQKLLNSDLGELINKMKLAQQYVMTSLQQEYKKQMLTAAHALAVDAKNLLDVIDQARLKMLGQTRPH

Structure (SMILES)	pIC50 (FAK)	pIC50 (PYK2)
CNC(=O)c1ccccc1Nc1nc(Nc2ccccc2OC)nc2c1CCN2 [Example 159, 2-(2-(2-methoxyphenylamino)-6,7-dihydro-5H-pyrrolo[2,3-d]pyrimidin-4-ylamino)-N-methylbenzamide]	> 6.70	> 6.70
COc1cc(N2CCOCC2)ccc1Nc1nc2c(c(Nc3ccccc3C(=O)O)n1)CCN2 [Example 160, 2-(2-(2-methoxy-4-morpholinophenylamino)-6,7-dihydro-5H-pyrrolo[2,3-d]pyrimidin-4-ylamino)benzoic acid]	> 6.30	> 6.00
COc1cc(N2CCOCC2)ccc1Nc1nc2c(c(Nc3ccccc3C=O)n1)CCN2 [Example 161, 2-(2-(2-methoxy-4-morpholinophenylamino)-6,7-dihydro-5H-pyrrolo[2,3-d]pyrimidin-4-ylamino)benzaldehyde]	> 6.00	> 6.00
COc1cc(N2CCC(N3CCNCC3)CC2)ccc1Nc1nc2c(c(Nc3ccccc3P(C)(C)=O)n1)CCN2 [Example 163, N^4-(2-(dimethylphosphoryl)phenyl)-N^2-(2-methoxy-4-(4-(piperazin-1-yl)piperidin-1-yl)phenyl)-6,7-dihydro-5H-pyrrolo[2,3-d]pyrimidine-2,4-diamine]	> 7.00	> 7.30

More lines, now with the values ahead:

pIC50 (FAK)	pIC50 (PYK2)	Structure (SMILES)
> 7.70	> 7.70	COc1cc(N2CCOCC2)ccc1Nc1nc2c(c(Nc3ccccc3N(C)S(C)(=O)=O)n1)C1(CC1)CN2 [Example 156, N-(2-(2′-(2-methoxy-4-morpholinophenylamino)-6′,7′-dihydrospiro[cyclopropane-1,5′-pyrrolo[2,3-d]pyrimidine]-4′-ylamino)phenyl)-N-methylmethanesulfonamide]
> 7.70	> 7.70	CNS(=O)(=O)c1ccccc1Nc1nc(Nc2cc(OC)c(OC)c(OC)c2)nc2c1C1(CC1)CN2 [Example 157, N-methyl-2-(2′-(3,4,5-trimethoxyphenylamino)-6′,7′-dihydrospiro[cyclopropane-1,5′-pyrrolo[2,3-d]pyrimidine]-4′-ylamino)benzenesulfonamide]
> 7.00	> 7.00	CNC(=O)c1ccccc1Nc1nc(Nc2ccc(N3CCOCC3)cc2)nc2c1CCN2 [Example 158, N-methyl-2-(2-(4-morpholinophenylamino)-6,7-dihydro-5H-pyrrolo[2,3-d]pyrimidin-4-ylamino)benzamide]
